Converted amounts (≈) assume the structure as drawn. Counter-ions that a name gives are not always drawn. Like-named read-outs stand apart in the source and are kept apart here.
How the values were obtained:
[1] = tested on: Staphylococcus aureus ATCC 49951; assay: MIC by broth microdilution (CLSI) against Staphylococcus aureus ATCC 49951; format: cell-based; conditions: Staphylococcus aureus ATCC 49951, in vitro
Description: (§1) The in vitro activity against aerobic bacteria was determined by Broth Microdilution Test according to the Clinical and Laboratory Standards Institute (CLSI, former NCCLS) Document M7-A9 Vol 32, No 2 “Methods for Dilution Antimicrobial Susceptibility Tests for Bacteria that Grow Aerobically; Approved Standard—Ninth Edition (2012)”; and the test against anaerobic bacteria was performed by Agar Dilution Test according to the Clinical and Laboratory Standards Institute (CLSI, former NCCLS), Document, M11-A8, Vol. 32, No. 5: “Methods for Antimicrobial Susceptibility Testing of Anaerobic Bacteria; Approved Standard—Eighth Edition (2012)”. Performance standards and interpretive criteria followed the CLSI Document, M100-S23: “Performance Standards for Antimicrobial Susceptibility Testing; Twenty-Third Informational Supplement” (2013). The in vivo activity was tested by the septicaemia mouse model against Staphylococcus aureus and Escherichia coli.
(§2) The antibacterial activity expressed as minimal inhibitory concentration (MIC) was determined according to the approved standard reference recommendations of CLSI (former NCCLS) as described in the description of the application.

[2] = tested on: Escherichia coli ATCC25922; assay: MIC by broth microdilution (CLSI) against Escherichia coli ATCC 25922; format: cell-based; conditions: Escherichia coli ATCC25922, in vitro
Description: as §1, §2

Compound	MIC [1]	MIC [2] [µg/mL]	MIC ([1]; ATCC49951, read-out: MIC) [µg/mL]	MIC ([2]; read-out: MIC) [µg/mL]
12-epi-12-desvinyl-14-O-{[1-(2-Amino-acetyl)-piperidin-4-yl-methylsulfanyl]-acetyl}-12-[(4-aminomethyl-phenylamino)-methyl] mutilin trihydrochloride [Example 81]	0.125 µg/mL	8	–	–
C=C[C@]1(C)C[C@@H](OC(=O)CSC(C)(C)CNC(=O)[C@H](N)C(C)C)[C@]2(C)[C@H](C)CC[C@]3(CCC(=O)[C@H]32)[C@@H](C)[C@@H]1O [Econor, econor, reference compound]	≦0.03 μg/mL	32 (≈ 56.7 µM)	–	–
C[C@@H]1CC[C@@]23CCC(=O)[C@H]2[C@]1(C)[C@H](OC(=O)CSc1ccc(CC(=O)NCCCN)cc1)C[C@](C)(CNCCCN)[C@@H](O)[C@@H]3C [Example 1, 12-epi-12-desvinyl-14-O-{{4-[(3-Amino-propylcarbamoyl)-methyl]-phenylsulfanyl}-acetyl}-12-[(3-amino-propylamino)-methyl] mutilin trihydrochloride]	–	–	≤ 0.03	0.5
CC1C(O)C(C)(CNCc2ccc(CN)cc2)CC(OC(=O)CSc2ccc(CC(=O)NCCCN)cc2)C2(C)C(C)CCC13CCC(=O)C32.Cl.Cl.Cl (stereo not drawn) [Example 9, 12-epi-12-desvinyl-14-O-{{4-[(3-Amino-propylcarbamoyl)-methyl]-phenylsulfanyl}-acetyl}-12-[(4-aminomethyl-benzylamino)-methyl] mutilin trihydrochloride]	≦0.03 μg/mL	0.5	–	–
CC1C(O)C(C)(CNCCCCCCNC(=N)N)CC(OC(=O)CSc2ccc(CC(=O)NCCCN)cc2)C2(C)C(C)CCC13CCC(=O)C32.Cl.Cl.Cl (stereo not drawn) [Example 11, 12-epi-12-desvinyl-14-O-{{4-[(3-Amino-propylcarbamoyl)-methyl]-phenylsulfanyl}-acetyl}-12-[(6-guanidino-hexylamino)-methyl] mutilin trihydrochloride]	≦0.03 μg/mL	0.25	–	–
C[C@@H]1CC[C@@]23CCC(=O)[C@H]2[C@]1(C)[C@H](OC(=O)CSc1ccc(C(=O)NCc2ccc(CN)cc2)cc1)C[C@](C)(CNCCCCCCN)[C@@H](O)[C@@H]3C [Example 23, 12-epi-12-desvinyl-14-O-{[4-(4-Aminomethyl-benzylcarbamoyl)-phenylsulfanyl]-acetyl}-12-[(6-amino-hexylamino)-methyl] mutilin trihydrochloride]	–	–	≤ 0.03	1
C[C@@H]1CC[C@@]23CCC(=O)[C@H]2[C@]1(C)[C@H](OC(=O)CSC1CCC(CN)CC1)C[C@](C)(CNCCCCCCN)[C@@H](O)[C@@H]3C (stereo partly drawn) [Example 47, 12-epi-12-desvinyl-14-O-{[(4-Aminomethyl-cyclohexyl)-sulfanyl]-acetyl}-12-[(6-amino-hexylamino)-methyl] mutilin trihydrochloride]	–	–	≤ 0.03	0.5
C[C@@H]1CC[C@@]23CCC(=O)[C@H]2[C@]1(C)[C@H](OC(=O)CSc1ccc(CCCN)cc1)C[C@](C)(CNCCCCCCN)[C@@H](O)[C@@H]3C [Example 48, 12-epi-12-desvinyl-14-O-{[4-(3-Amino-propyl)-phenylsulfanyl]-acetyl}-12-[(6-amino-hexylamino)-methyl] mutilin trihydrochloride]	–	–	≤ 0.03	0.25
C[C@@H]1CC[C@@]23CCC(=O)[C@H]2[C@]1(C)[C@H](OC(=O)CSc1ccc(CC(=O)NCCCN)cc1)C[C@](C)(CCNCCCN)[C@@H](O)[C@@H]3C [Example 52, 12-epi-12-desvinyl-14-O-{{4-[(3-Amino-propylcarbamoyl)-methyl]-phenylsulfanyl}-acetyl}-12-[2-(3-amino-propylamino)-ethyl] mutilin trihydrochloride]	–	–	≤ 0.03	0.5
CC1C(O)C(C)(CNCCCCCCN)CC(OC(=O)CSc2cccc(CO)c2)C2(C)C(C)CCC13CCC(=O)C32.Cl.Cl (stereo not drawn) [Example 54, 12-epi-12-desvinyl-14-O-[(3-Hydroxymethyl-phenylsulfanyl)-acetyl]-12-[(6-amino-hexylamino)-methyl] mutilin dihydrochloride]	0.125 µg/mL	4	–	–
C[C@@H]1CC[C@@]23CCC(=O)[C@H]2[C@]1(C)[C@H](OC(=O)CS[C@@H]1CC[C@@H](N)C[C@H]1O)C[C@](C)(CNCCCN)[C@@H](O)[C@@H]3C.Cl.Cl.Cl [Example 62, 12-epi-12-desvinyl-14-O-{[(1R,2R,4R)-4-Amino-2-hydroxy-cyclohexylsulfanyl]-acetyl}-12-[(3-amino-propylamino)-methyl] mutilin trihydrochloride]	0.25 µg/mL	4	–	–
CC1C(O)C(C)(CNCc2ccc(CN)cc2)CC(OC(=O)CSCCO)C2(C)C(C)CCC13CCC(=O)C32.Cl.Cl (stereo not drawn) [Example 64, 12-epi-12-desvinyl-14-O-[(2-Hydroxy-ethylsulfanyl)-acetyl]-12-[(4-aminomethyl-benzylamino)-methyl] mutilin dihydrochloride]	0.5 µg/mL	4	–	–
CC1C(O)C(C)(CNCc2ccc(CN)cc2)CC(OC(=O)CSCCN)C2(C)C(C)CCC13CCC(=O)C32.Cl.Cl.Cl (stereo not drawn) [Example 65, 12-epi-12-desvinyl-14-O-[(2-Amino-ethylsulfanyl)-acetyl]-12-[(4-aminomethyl-benzylamino)-methyl] mutilin trihydrochloride]	0.5 µg/mL	2	–	–
C[C@@H]1CC[C@@]23CCC(=O)[C@H]2[C@]1(C)[C@H](OC(=O)CSc1nnc(N)[nH]1)C[C@](C)(CNCCCCCCN)[C@@H](O)[C@@H]3C.Cl.Cl.Cl [Example 66, 12-epi-12-desvinyl-14-O-{[(5-Amino-4H-1,2,4-triazol-3-yl)-sulfanyl]-acetyl}-12-[(6-amino-hexylamino)-methyl] mutilin trihydrochloride]	0.5 µg/mL	4	–	–
CC1C(O)C(C)(CNCCCCCCN)CC(OC(=O)CSc2ccncc2)C2(C)C(C)CCC13CCC(=O)C32.Cl.Cl.Cl (stereo not drawn) [Example 68, 12-epi-12-desvinyl-14-O-[(Pyridin-4-ylsulfanyl)-acetyl]-12-[(6-amino-hexylamino)-methyl] mutilin trihydrochloride]	0.25 µg/mL	4	–	–
C[C@@H]1CC[C@@]23CCC(=O)[C@H]2[C@]1(C)[C@H](OC(=O)CSC1CCN(C(=O)CN)CC1)C[C@](C)(CNCc1ccc(CN)cc1)[C@@H](O)[C@@H]3C [Example 78, 12-epi-12-desvinyl-14-O-{[1-(2-Amino-acetyl)-piperidin-4-yl-sulfanyl)]-acetyl}-12-[(4-aminomethyl-benzylamino)-methyl] mutilin trihydrochloride]	–	–	0.5	2
C[C@@H]1CC[C@@]23CCC(=O)[C@H]2[C@]1(C)[C@H](OC(=O)CSC1CCN(C(=O)CN)CC1)C[C@](C)(CNCc1ccc(OCCN)cc1)[C@@H](O)[C@@H]3C [Example 83, 12-epi-12-desvinyl-14-O-{[1-(2-Amino-acetyl)-piperidin-4-yl-sulfanyl]-acetyl}-12{2-[4-(2-amino-ethoxy)-benzylamino]-methyl} mutilin trihydrochloride]	–	–	0.25	1

From patent US9701628B2, “12-epi pleuromutilins” (NABRIVA THERAPEUTICS AG, priority 2014, dated 2017)
